{"source": "the supplement of paper PMC10307832", "experiment_in_all_cases": "relative viability (nuclei count vs DMSO), 5 days (fraction); higher = more cells survive", "key": {"NCI-H2228": {"system": "NCI-H2228", "method_in_brief": "(§1)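 Relative viability was taken as the ratio of nuclei in treated wells to nuclei in vehicle wells. Lung cancer cell lines in 1536-well plates received compounds by pin tool one day after seeding, either one drug alone or a fixed anchor-drug dose plus five library-drug doses (not always all listed) in √10 steps. Nuclei were counted on 4× images after 5 days of treatment, and values are medians of duplicate plates.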"}, "A549": {"system": "A549", "method_in_brief": "as §1"}, "LOU-NH91": {"system": "LOU-NH91", "method_in_brief": "as §1"}, "NCI-H1650": {"system": "NCI-H1650", "method_in_brief": "as §1"}, "NCI-H1755": {"system": "NCI-H1755", "method_in_brief": "as §1"}, "LK-2": {"system": "LK-2", "method_in_brief": "as §1"}, "NCI-H1703": {"system": "NCI-H1703", "method_in_brief": "as §1"}, "Calu-6": {"system": "Calu-6", "method_in_brief": "as §1"}, "NCI-H1299": {"system": "NCI-H1299", "method_in_brief": "as §1"}, "EBC-1": {"system": "EBC-1", "method_in_brief": "as §1"}, "NCI-H1666": {"system": "NCI-H1666", "method_in_brief": "as §1"}, "IA-LM": {"system": "IA-LM", "method_in_brief": "as §1"}}, "data": [{"smiles": "COCC1(CO)C(=O)C2CCN1CC2", "note": "(stereo not given) [PRIMA-1MET] + CC1(C)CCC(c2ccc(Cl)cc2)=C(CN2CCN(c3ccc(C(=O)NS(=O)(=O)c4ccc(N[C@H](CCN5CCOCC5)CSc5ccccc5)c(S(=O)(=O)C(F)(F)F)c4)cc3)CC2)C1 [Navitoclax] (partner 0.5 µM)", "values": [{"measurement": "relative viability", "setting": "NCI-H2228; first compound 0.2 µM", "result": 0.9}, {"measurement": "relative viability", "setting": "NCI-H2228; first compound 0.6325 µM", "result": 0.839}, {"measurement": "relative viability", "setting": "NCI-H2228; first compound 2 µM", "result": 1.09}, {"measurement": "relative viability", "setting": "NCI-H2228; first compound 6.325 µM", "result": 0.62}, {"measurement": "relative viability", "setting": "NCI-H2228; first compound 20 µM", "result": 0.0661}, {"measurement": "relative viability", "setting": "A549; first compound 0.2 µM", "result": 1.35}, {"measurement": "relative viability", "setting": "A549; first compound 0.6325 µM", "result": 1.09}, {"measurement": "relative viability", "setting": "A549; first compound 2 µM", "result": 1.23}, {"measurement": "relative viability", "setting": "A549; first compound 6.325 µM", "result": 1.16}, {"measurement": "relative viability", "setting": "A549; first compound 20 µM", "result": 1.08}, {"measurement": "relative viability", "setting": "LOU-NH91; first compound 0.2 µM", "result": 0.729}, {"measurement": "relative viability", "setting": "LOU-NH91; first compound 0.6325 µM", "result": 0.677}, {"measurement": "relative viability", "setting": "LOU-NH91; first compound 2 µM", "result": 0.589}, {"measurement": "relative viability", "setting": "LOU-NH91; first compound 6.325 µM", "result": 0.601}, {"measurement": "relative viability", "setting": "LOU-NH91; first compound 20 µM", "result": 0.383}, {"measurement": "relative viability", "setting": "NCI-H1650; first compound 0.2 µM", "result": 1.39}, {"measurement": "relative viability", "setting": "NCI-H1650; first compound 0.6325 µM", "result": 1.14}, {"measurement": "relative viability", "setting": "NCI-H1650; first compound 2 µM", "result": 1.32}, {"measurement": "relative viability", "setting": "NCI-H1650; first compound 6.325 µM", "result": 1.33}, {"measurement": "relative viability", "setting": "NCI-H1650; first compound 20 µM", "result": 0.888}, {"measurement": "relative viability", "setting": "NCI-H1755; first compound 0.2 µM", "result": 1.07}, {"measurement": "relative viability", "setting": "NCI-H1755; first compound 0.6325 µM", "result": 1.01}, {"measurement": "relative viability", "setting": "NCI-H1755; first compound 2 µM", "result": 0.535}, {"measurement": "relative viability", "setting": "NCI-H1755; first compound 6.325 µM", "result": 0.953}, {"measurement": "relative viability", "setting": "NCI-H1755; first compound 20 µM", "result": 1.05}, {"measurement": "relative viability", "setting": "LK-2; first compound 0.2 µM", "result": 1.06}, {"measurement": "relative viability", "setting": "LK-2; first compound 0.6325 µM", "result": 0.771}, {"measurement": "relative viability", "setting": "LK-2; first compound 2 µM", "result": 0.617}, {"measurement": "relative viability", "setting": "LK-2; first compound 6.325 µM", "result": 0.726}, {"measurement": "relative viability", "setting": "LK-2; first compound 20 µM", "result": 0.133}, {"measurement": "relative viability", "setting": "NCI-H1703; first compound 0.2 µM", "result": 1.43}, {"measurement": "relative viability", "setting": "NCI-H1703; first compound 0.6325 µM", "result": 0.891}, {"measurement": "relative viability", "setting": "NCI-H1703; first compound 2 µM", "result": 1.18}, {"measurement": "relative viability", "setting": "NCI-H1703; first compound 6.325 µM", "result": 1.21}, {"measurement": "relative viability", "setting": "NCI-H1703; first compound 20 µM", "result": 0.0405}, {"measurement": "relative viability", "setting": "Calu-6; first compound 0.2 µM", "result": 0.97}, {"measurement": "relative viability", "setting": "Calu-6; first compound 0.6325 µM", "result": 0.823}, {"measurement": "relative viability", "setting": "Calu-6; first compound 2 µM", "result": 0.845}, {"measurement": "relative viability", "setting": "Calu-6; first compound 6.325 µM", "result": 0.781}, {"measurement": "relative viability", "setting": "Calu-6; first compound 20 µM", "result": 0.305}, {"measurement": "relative viability", "setting": "NCI-H1299; first compound 0.2 µM", "result": 1.14}, {"measurement": "relative viability", "setting": "NCI-H1299; first compound 0.6325 µM", "result": 1.04}, {"measurement": "relative viability", "setting": "NCI-H1299; first compound 2 µM", "result": 1.05}, {"measurement": "relative viability", "setting": "NCI-H1299; first compound 6.325 µM", "result": 1.11}, {"measurement": "relative viability", "setting": "NCI-H1299; first compound 20 µM", "result": 1.04}, {"measurement": "relative viability", "setting": "EBC-1; first compound 0.2 µM", "result": 0.379}, {"measurement": "relative viability", "setting": "EBC-1; first compound 0.6325 µM", "result": 0.37}, {"measurement": "relative viability", "setting": "EBC-1; first compound 2 µM", "result": 0.427}, {"measurement": "relative viability", "setting": "EBC-1; first compound 6.325 µM", "result": 0.416}, {"measurement": "relative viability", "setting": "EBC-1; first compound 20 µM", "result": 0.151}, {"measurement": "relative viability", "setting": "NCI-H1666; first compound 0.2 µM", "result": 1.01}, {"measurement": "relative viability", "setting": "NCI-H1666; first compound 0.6325 µM", "result": 0.858}, {"measurement": "relative viability", "setting": "NCI-H1666; first compound 2 µM", "result": 1.03}, {"measurement": "relative viability", "setting": "NCI-H1666; first compound 6.325 µM", "result": 0.895}, {"measurement": "relative viability", "setting": "NCI-H1666; first compound 20 µM", "result": 0.249}, {"measurement": "relative viability", "setting": "IA-LM; first compound 0.2 µM", "result": 0.657}, {"measurement": "relative viability", "setting": "IA-LM; first compound 0.6325 µM", "result": 0.769}, {"measurement": "relative viability", "setting": "IA-LM; first compound 2 µM", "result": 0.714}, {"measurement": "relative viability", "setting": "IA-LM; first compound 6.325 µM", "result": 0.949}, {"measurement": "relative viability", "setting": "IA-LM; first compound 20 µM", "result": 0.806}]}]}
